Measured values published in patent publication US20140213779A1, “RIBOSWITCHES” (THE UNIVERSITY OF MANCHESTER, priority 2011, published 2014).
Where two headings read alike, the source gives them in different places.

Experiments:
add A-riboswitch = assay: Dual promoter construct, eGFP expression by fluorescence; format: cell-based, Escherichia coli
Text: (§1) Here we show how two mutually orthogonal riboswitches can be independently controlled by varying concentrations of two distinct synthetic inducers, allowing dynamic expression landscapes to be accessed and optimal co-expression stoichiometries to be established. In the first instance a dual promoter system was constructed, in the pBKS vector with the orthogonal M6 riboswitch selected previously (Dixon et al Proc Natl Acad Sci USA 2010, 107, 2830] or Dixon et al Angew. Chem. 2012, 51, 3620-3624. controlling translation of the red fluorescent protein DsRed [Bevis, Nat. Biotech. 20:83 (2002)] in response to the ligand ammeline (Am). The bacteriophage lambda tR1 transcription terminator [Graham. NAR, Vol. 32:3093 (2004] was inserted downstream of DsRed gene, followed by a second lac promoter and the 2-aminopurine (2AP)-responsive parental add A-riboswitch [Dixon et al Proc Natl Acad Sci USA 2010, 107, 2830 & Mandal, Nat Struct Mol Biol 11: 29 (2004)] controlling translation of the green fluorescent protein eGFP (FIG. 34A). Escherichia coli was transformed with this dual promoter construct and expression of DsRed and eGFP genes, was then determined by fluorescence as function of inducer concentrations.
(§2) To explore the capacity of the dual promoter system for controlling the differential expression of DsRed and eGFP, multi-dosage matrix expression analysis was performed where induction factors (IF), the ratio of the maximum ligand-induced protein expression over the basal protein expression level, are determined for a full range of inducer concentrations (FIGS. 34A & B).
(§3) A number of reasons could possibly account for this. Firstly, ribosomal read-through could result in a more efficient initiation of translation at the eGFP RBS. […] Titration of the M6 selective inducer Am (0→250 μM) against the dual promoter in either the absence or presence 2AP (0 or 250 μM) gives dose-dependent protein expression curves for DsRed that are very similar, with maximum normalized red fluorescence (fu/OD620) of 1.1×10^5 and 1.0×10^5 respectively (FIG. 36A). […]

M6 riboswitch [1] = assay: Dual promoter construct, DsRed expression by fluorescence; format: cell-based, Escherichia coli; settings: for maximum normalized red fluorescence: Am 0→250 μM
Text: as §1, §2
(§4) A number of reasons could possibly account for this. Firstly, ribosomal read-through could result in a more efficient initiation of translation at the eGFP RBS. Secondly, riboswitches that control gene expression through changing the accessibility of the RBS (like addA), may also rely on Rho-dependent termination of transcription [Roth, Annu. Rev. Biochem. 78:305 (2009) & Peters Proc. Natl. Acad. Sci. USA 106:15406 (2009)]. In the case of the operon, when both riboswitches are activated by Am and 2AP, ribosomes will be recruited at both RBSs and will occupy the full length of the transcript, blocking Rho binding [Epshtein, Nature 463:245 (2010)]. Consequently the levels of full-length mRNA transcripts in the cell will be higher, than if either or both ligands are absent. Finally protection of the full-length transcript from nuclease degradation by actively translating ribosomes [Deana, Genes Dev. […] Titration of the M6 selective inducer Am (0→250 μM) against the dual promoter in either the absence or presence 2AP (0 or 250 μM) gives dose-dependent protein expression curves for DsRed that are very similar, with maximum normalized red fluorescence (fu/OD620) of 1.1×10^5 and 1.0×10^5 respectively (FIG. 36A). […]

M6 = settings: earlier in vitro studies; cited from earlier work
[2] = tested on: intergenic add-A riboswitch; assay: Operon construct, eGFP expression by fluorescence; format: cell-based, Escherichia coli
Text: In a second series of experiments, a synthetic operon was designed with one promoter driving transcription of a single bicistronic mRNA comprising the M6 riboswitch regulating DsRed, and an intergenic add-A riboswitch controlling a downstream eGFP gene (FIG. 35A). […] Moreover, the maximum DsRed induction factor was 21.2, which is also more than 2-fold higher than the dual promoter system (FIG. 35B). The organisation of M6-DsRed in an operon, permits differential control, but also gives rise to significant amplification of the dynamic range of gene expression (IF), compared with the dual promoter system. […] In this case, eGFP output was clearly dependent on both ligands. A synergistic effect of the two ligands is observed in the induction factor matrix analysis, across a full range of Am and 2AP concentrations (FIG. 35C), with the expression landscape reaching a maximum induction factor of 24.1 in the presence of the highest concentrations of both inducers. […] Similarly no cross-talk is observed with the dual promoter system described above.
as §4, with “(2010)].” for “(2010)]. Consequently the levels of full-length mRNA transcripts in the cell will be higher, than if either or both ligands are absent. Finally protection of the full-length transcript from nuclease degradation by actively translating ribosomes [Deana, Genes Dev.”

M6″ riboswitch [3] = assay: T7 RNA polymerase expression under M6″ riboswitch control (spacer constructs); settings: for regulation upon addition of IPTG: IPTG 0.5 mM
Protocol: (§6) Expression is induced using IPTG (0.5 mM) and increasing concentrations of A43 (respectively 0, 5, 10, 25, 50, 100, 250 uM) shown in the third to eighth columns.

M6″ riboswitch [4] = tested on: M6″ riboswitch
Protocol: as §6

[5] = tested on: addA(wt) riboswitch aptamer; assay: Isothermal titration calorimetry with AddA(wt) aptamer; format: binding, Vibrio vulnificus; settings: ITC, FIG. 59
Text: Improved 2nd generation ligands have been discovered both in terms of in vivo and in vitro binding affinity.

M6″ riboswitch [6] = assay: M6″-eGFP construct, GFP expression; format: cell-based, E. coli
Text: (§5) Re-engineering the adenine responsive add A-riboswitch (addA) from Vibrio vulnificus (FIGS. 27A & B) [Dixon et al Proc Natl Acad Sci USA 2010, 107, 2830].
In contrast, the genetic construct of the invention comprises a lac promoter/operator upstream of a 2nd generation riboswitch M6″-eGFP the lac promoter/operator and riboswitch respectively providing direct control of the expression of GFP via transcriptional and translational control.
Both the comparator construct and the genetic construct of the invention were provided on high copy plasmids in Top 10F′.

M6″ riboswitch aptamer = assay: Isothermal titration calorimetry with M6″ aptamer; format: binding
Text: as §5

add A = settings: earlier in vitro studies; cited from earlier work
AddA riboswitch = assay: addA-eGFP construct, GFP expression; format: cell-based, E. coli
Text: In the control constructs GFP expression is controlled directly by a lac promoter/operator alone. In contrast, in the gene constructs of the invention GFP expression is controlled by both a lac promoter/operator, and a riboswitch. In this arrangement the lac promoter provides transcriptional control of expression, and the riboswitch provides translational control. […] In this example, the first generation riboswitch comprises AddA (the ligand for which is adenine), and the second generation riboswitch comprises M6″ (the ligand for which is A43).
GFP induction factors (left axis indicated by the green bars) and absolute normalized GFP fluorescence signal (right axis) in the absence of inducer (open shape) and in the presence of inducer (closed shape).

M6 riboswitch [7] = assay: Operon construct, DsRed expression by fluorescence; format: cell-based, Escherichia coli
Text: In a second series of experiments, a synthetic operon was designed with one promoter driving transcription of a single bicistronic mRNA comprising the M6 riboswitch regulating DsRed, and an intergenic add-A riboswitch controlling a downstream eGFP gene (FIG. 35A). […] Moreover, the maximum DsRed induction factor was 21.2, which is also more than 2-fold higher than the dual promoter system (FIG. 35B). The organisation of M6-DsRed in an operon, permits differential control, but also gives rise to significant amplification of the dynamic range of gene expression (IF), compared with the dual promoter system. […] In this case, eGFP output was clearly dependent on both ligands. […]
as §3

lac promoter/operator = assay: Control lac P/O construct, GFP expression; format: cell-based, E. coli
Text: FIGS. 52 and 53 illustrate the increased dynamic regulation of expression of a gene of interest (here exemplified by green fluorescent protein) that can be achieved using gene constructs in accordance with the present invention, as compared to comparator (control) constructs. In the control constructs GFP expression is controlled directly by a lac promoter/operator alone. In contrast, in the gene constructs of the invention GFP expression is controlled by both a lac promoter/operator, and a riboswitch. In this arrangement the lac promoter provides transcriptional control of expression, and the riboswitch provides translational control. FIGS. 52 and 53 respectively show data generated by gene constructs of the invention comprising first and second generation riboswitches (referred to respectively as “1st Generation” and “2nd Generation” constructs) when present on high copy plasmids in E. coli Top10F′. In this example, the first generation riboswitch comprises AddA (the ligand for which is adenine), and the second generation riboswitch comprises M6″ (the ligand for which is A43). […]
The induction factor represents the degree to which gene expression is controlled, and is determined from the ratio of the maximum induced protein expression over the basal protein expression level. […]

M6C″ riboswitch aptamer = assay: Isothermal titration calorimetry with M6C″ aptamer; format: binding; settings: ITC, M6C″ aptamer domain
Text: as §5

M6C″ riboswitch = assay: M6C″-eGFP riboswitch-reporter construct, gene expression; format: cell-based, E. coli
Text: as §5

## Nc1ncc2[nH]cnc2n1 [2AP, 2-aminopurine]
Add A-riboswitch; increasing 2AP
  induction factor, eGFP: 11.3
Add A-riboswitch; unaffected by Am
  maximum eGFP levels: ca. 55×10^6 fu/OD620
M6 riboswitch [1]; simultaneous increase in 2AP
  effect upon DsRed induction: essentially no effect
M6
  binding interaction: no binding interaction
[2]; 2AP in the presence of Am (250 μM)
  output, eGFP: 25.9×10^6 fu/OD620
[2]; highest concentrations of both inducers (Am and 2AP)
  maximum induction factor, eGFP: 24.1
[2]; titration of 2AP alone
  maximum output, eGFP: 14.8×10^6 fu/OD620

## Nc1nc(N)c2cncnc2n1 [A43, pyrimido[4,5-d]pyrimidine-2,4-diamine]
M6″ riboswitch [3]; A43 50, 100, 250, 1000 μM, lac I forward or reverse, FIG. 48
  induction of T7 RNA polymerase (blot): dose-dependent
M6″ riboswitch [3]; pTTv9, A43 2→250 uM, absence and presence of A1 (250 uM)
  regulation of T7RNAP (western blot): dose dependent regulation
M6″ riboswitch [4]; 105 nt spacer, IPTG (0.5 mM) plus A43 (250 uM)
  dynamic range of control (max/un-induced): 134 fold
M6″ riboswitch [4]; sp120
  induction factor above IPTG expression: up to 12 fold
[5]
  affinity: no affinity
M6″ riboswitch [6]; eGFP expression assay, FIG. 58
  maximum eGFP expression compared with WT: exceeds that of the WT (adddA) with adenine
M6″ riboswitch [6]; in E. coli
  induction of gene expression: 12 fold
M6″ riboswitch [6]; in combination with lac promoter/operator, FIG. 53
  induction of gene expression: > 400 fold
M6″ riboswitch [6]; maximum induced over basal, IPTG plus A43
  induction factor: ~450
M6″ riboswitch aptamer; isothermal titration calorimetry, FIG. 59, read-out: Kd
  Kd: 0.189 µM

## Nc1nc(N)c2nccnc2n1 [A44, 2,4-Diaminopteridine]
M6″ riboswitch aptamer; ITC, FIG. 60, read-out: in vitro binding affinity
  Kd: ~2 µM

## Nc1nc(N)[nH]c(=O)n1 [Am, ammeline]
Add A-riboswitch; changes in Am concentration
  effect upon induction of eGFP expression: no effect
M6 riboswitch [1]; absence of 2AP
  maximum normalized red fluorescence: 1.1×10^5 fu/OD620
M6 riboswitch [1]; presence of 2AP 250 μM
  maximum normalized red fluorescence: 1.0×10^5 fu/OD620
M6 riboswitch [1]; increasing Am, co-administration of 2-AP
  maximum induction factor, DsRed: 9.3
Add A
  binding interaction: no binding interaction
AddA riboswitch
  response of riboswitch to ligand: does not respond
M6″ riboswitch aptamer; ITC, M6″ aptamer domain, read-out: Kd
  Kd: 1 to 1.2 µM
M6 riboswitch [7]
  maximum DsRed induction factor: 21.2
M6 riboswitch [7]; Am 0→250 μM, presence or absence of 2AP (0 or 250 μM)
  maximum output, DsRed expression: 2.9×10^6 fu/OD620

## CC(C)S[C@@H]1O[C@H](CO)[C@H](O)[C@H](O)[C@H]1O [IPTG]
Lac promoter/operator
  induction factor (control +/−IPTG): 4
M6″ riboswitch [3]; sp105
  regulation upon addition of IPTG: 44 fold
M6″ riboswitch [3]; sp120
  regulation upon addition of IPTG: ~1 fold
M6″ riboswitch [6]; riboswitch containing construct, column 2, no riboswitch inducer
  control +/−IPTG: 40 fold

## Nc1ncnc2nc[nH]c12 [adenine]
M6C″ riboswitch aptamer
  affinity: no affinity
M6C″ riboswitch
  response of riboswitch to ligand: neither responds
M6″ riboswitch [6]; M6″
  response of riboswitch to ligand: neither responds
M6″ riboswitch aptamer; ITC, M6″ aptamer domain
  affinity: no affinity

## Nc1ncnc(=O)[nH]1 [compound 3, azacytosine]
M6C″ riboswitch aptamer
  Kd: 1 to 1.2 µM
AddA riboswitch
  response of riboswitch to ligand: does not respond
